From patent US8859599B2, “Androgen receptor modulating compounds, preparation and uses thereof” (priority 2009, dated 2014)
Like-named read-outs stand apart in the source and are kept apart here.

Columns and labels:
LNCaP cells [1] = assay: Sulforhodamine B (SRB) in vitro chemosensitivity assay on LNCaP cells; format: cell-based; details: for LC50: read-out: cytocidal effects by 50% (LC50), LNCaP cells, 144 h exposure; for LC50 / cytocidal effects by 50% (LC50): n.r. = not reached
Method: (§1) Sulforhodamine B (SRB) assay was used according to the method by Skehan et al. (JNCI, 1990). Briefly, cells were collected by trypsinization, counted and plated at a density of 5,000 cells/well in 96-well flat-bottomed microtiter plates (100 μl of cell suspension/well). In the chemosensitivity assay, experiments were run in octuplicate, and each experiment was repeated three times. The optical density (OD) of cells was determined at a wavelength of 490 nm by a colorimetric plate reader.
(§2) Growth inhibition and cytocidal effect of drugs were calculated according to the formula reported by Monks et al. (JNCI, 1991): [(ODtreated−ODzero)/(ODcontrol−ODzero)]×100%, when ODtreated is > to ODzero. If ODtreated is above ODzero, treatment has induced a cytostatic effect, whereas if ODtreated is below ODzero, cell killing has occurred. The ODzero depicts the cell number at the moment of drug addition, the ODcontrol reflects the cell number in untreated wells and the ODtreated reflects the cell number in treated wells on the day of the assay. TUNEL Assay
The authors examined the antitumour activity of the compounds for which the synthesis is described above, in the hormone-sensitive prostate cancer cell line LNCaP. (R)-Bicalutamide and the novel compounds were tested at the increasing concentrations of […]. The highest dose used was chosen on the basis of the clinically achievable peak plasma concentration reported in the literature for bicalutamide (Cockshott I D. Clin Pharmacokinet. 2004; 43 (13) 855-78).
After 144-hr exposure time, the cytotoxic effect of the molecules was calculated according to the method of Monks et al. (Monks A, et al., J. Nat. Cancer Inst. 1991; 83: 757-66).

PC-3 = assay: SRB cytotoxicity on PC-3 cells; format: cell-based, human; details: PC-3 cells (no AR), 144 h exposure
Method: (§3) Finally, compounds were also tested on HepG2 cells, originally isolated from a primary hepatoblastoma of a child, purchased from ATCC.
as §1, §2
(§4) The authors tested the antitumour activity of the compounds also on PC-3 and DU145 cancer cell lines, representative of hormone-refractory prostate cancer due to AR receptor absence.

DU145 = assay: SRB cytotoxicity on DU145 cells; format: cell-based, human; details: DU145 cells (no AR), 144 h exposure
Method: as §3, §1, §2, §4

LNCaP cells [2] = assay: TUNEL assay of apoptotic cells in LNCaP; format: cell-based, human; details: 144-h exposure, 20.0 μM
Method: Cells were fixed in 1% paraformaldehyde in PBS on ice for 15 min, suspended in ice cold ethanol (70%) and stored overnight at −20° C. Cells were then washed twice in PBS and resuspended in PBS containing 0.1% Triton X-100 for 5 min at 4° C. Thereafter, samples were incubated in 50 μl of solution containing TdT and FITC-conjugated dUTP deoxynucleotides 1:1 (Roche Diagnostic GmbH, Mannheim, Germany) in a humidified atmosphere for 90 min at 37° C. in the dark, washed in PBS, counterstained with propidium iodide (2.5 μg/ml, MP Biomedicals, Verona, Italy) and RNAse (10 Kunits/ml, Sigma Aldrich, Milan, Italy) for 30 min at 4° C. in the dark and analyzed by flow cytometry.
After the end of drug exposures, medium was removed and cells were detached from the flasks by trypsin treatment, washed twice with PBS and stained according to the different methods specified below. Flow cytometric analysis was performed using a FACS Canto flow cytometer (Becton Dickinson, San Diego, Calif.). Data acquisition and analysis were performed using FACSDiva software (Becton Dickinson). Samples were run in triplicate and 10,000 events were collected for each replica. Data were the average of three experiments, with errors under 5%.
The cells, before TUNEL assay, were continuously exposed to the anti-androgen compounds for 144 hours at the concentration of 20.0 μM.

LNCaP-AR cells = assay: TUNEL assay of apoptotic cells in LNCaP-AR; format: cell-based, human; details: LNCaP-AR, 144-h exposure, 20.0 μM, TUNEL
[3] = system: normal stem cells derived from human peripheral blood stem cells; assay: Colony-forming cell assay (GM-CFU); format: cell-based; details: highest concentration tested, 14 days incubation
Method: The colony-forming cell assay was used as previously described [Motta M R et al., Exp Hematol 1997; 25:1261-1269]. In brief, for each molecule, 5×10^4 cells were plated in duplicate in a complete culture medium (MethoCult H4434, StemCell Technologies, Vancouver, Canada) containing different concentrations (0.2, 2, and 20 μmol/l) of the compound. After 14 days of incubation in a humidified atmosphere of 5% CO2 at the temperature of 37° C., granulocyte macrophage colony-forming unit (GM-CFU) aggregates of more than 50 cells were counted. Control cells were incubated under the same conditions but in drug-free medium.
The authors also evaluated the potential toxicity of some of the novel compounds in normal cells as the ability of the drugs to inhibit clonogenic growth of normal stem cells derived from human peripheral blood stem cells (FIG. 37). The exposure of hematopoietic precursor to the compounds, caused low ((S)-37) or negligible (, (R)-22, (R)-23, (R)-10) toxicity at the highest concentration tested.

HepG2 cells = assay: Cytotoxic activity on hepatoblastoma cell line HepG2; format: cell-based, human; details: up to highest concentration tested
Method: as §3, §1, §2
The authors evaluated in vitro the potential hepato-toxicity of some of the novel compounds on HepG2 cell line, a human hepatoblastoma cell line that retains the specialized function of normal hepatocytes [Knowles B B, et al., Science 1980, 209:497-499; Aden D P, et al., Nature, 1979, 282:615-616].

[4] = target: T1, human androgen receptor (hAR) (Homo sapiens, UniProt P10275); assay: hAR transactivation assay (ARE-luciferase reporter) in Cos-7 cells; format: cell-based
T1 construct: The cDNA coding hAR was cloned into the pSG5 expression vector as reported previously; expressed in transfected cells; host or cells: Cos-7 cells transiently transfected with pSG5-hAR
T1 sequence (P10275 1-920): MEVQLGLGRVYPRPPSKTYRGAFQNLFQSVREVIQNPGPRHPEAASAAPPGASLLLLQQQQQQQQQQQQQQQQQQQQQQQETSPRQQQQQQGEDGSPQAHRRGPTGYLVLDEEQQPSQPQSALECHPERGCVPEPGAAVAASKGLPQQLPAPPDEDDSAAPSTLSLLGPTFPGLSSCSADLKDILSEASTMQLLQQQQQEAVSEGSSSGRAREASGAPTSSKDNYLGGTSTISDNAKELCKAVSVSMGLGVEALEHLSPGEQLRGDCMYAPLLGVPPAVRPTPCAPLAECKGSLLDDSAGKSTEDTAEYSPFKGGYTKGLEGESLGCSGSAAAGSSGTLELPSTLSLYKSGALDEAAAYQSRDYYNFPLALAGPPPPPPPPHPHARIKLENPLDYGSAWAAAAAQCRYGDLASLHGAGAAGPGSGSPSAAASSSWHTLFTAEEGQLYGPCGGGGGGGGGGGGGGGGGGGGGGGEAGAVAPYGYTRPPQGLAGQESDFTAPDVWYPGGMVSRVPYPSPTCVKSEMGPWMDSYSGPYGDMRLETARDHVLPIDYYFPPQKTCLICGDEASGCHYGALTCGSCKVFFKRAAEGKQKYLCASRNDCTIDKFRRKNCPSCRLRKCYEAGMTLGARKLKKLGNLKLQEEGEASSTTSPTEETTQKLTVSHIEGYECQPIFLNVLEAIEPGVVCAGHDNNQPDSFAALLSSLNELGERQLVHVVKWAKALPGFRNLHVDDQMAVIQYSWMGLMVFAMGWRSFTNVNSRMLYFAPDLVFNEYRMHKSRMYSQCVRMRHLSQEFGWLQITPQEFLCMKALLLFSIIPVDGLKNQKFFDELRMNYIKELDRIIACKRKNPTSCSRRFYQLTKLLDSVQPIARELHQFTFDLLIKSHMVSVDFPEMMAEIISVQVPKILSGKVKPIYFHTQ
Method: The cDNA coding hAR was cloned into the pSG5 expression vector as reported previously [Chang, C. S., et al., Science (1988)240:324-326]. The 3416 construct (ARE-Luc), containing four copies of the wild-type slp-HRE2 (5′-TGGTCAgccAGTTCT-3′) (SEQ ID No. 1) was cloned in the NheI site in pTK-TATA-Luc [Verrijdt, G. et al., J. Biol. Chem. (2000)275:12298-12305].
For androgen-stimulated transcriptional analysis, 32×10^4 Cos-7 cells were plated in phenol red-free DMEM containing 5% charcoal-stripped serum. After 48 h, the cells were transfected by Superfect (Qiagen) with 0.3 μg of 3416-pTK-TATA-Luc construct, together with 1.5 μg of either pSG5-empty plasmid or pSG5-hAR expressing plasmid. After 18 h, transfected cells were stimulated for 24 h with 10 nM of the synthetic androgen, R1881 (from Perkin-Elmer; dissolved in 0.001% ethanol, final concentration), in the absence or presence of the indicated concentrations of synthetic compounds. When indicated, the synthetic compounds were added alone to the cell medium. […] It was dissolved in 0.001% (final concentration) ethanol. Control cells were treated with the vehicle alone. Lysates were prepared and the luciferase activity was measured using a luciferase assay system (Promega). The results were corrected using CH110-expressed beta-galactosidase activity (Amersham Biosciences) and luciferase activity was expressed as fold induction. Results were obtained from two or three different experiments, each performed in duplicate. Mean and SEM are shown.

[5] = Homo sapiens, LNCaP, 144 h, read-out: Growth inhibition (GI50), LNCaP cells, 144 h exposure

SMILES	GI50 (LNCaP cells [1]; [5]) [µM]	LC50 (LNCaP cells [1]; Homo sapiens, LNCaP, 144 h) [µM]	cytocidal (cell killing) activity (LNCaP cells [1]; LNCaP cells, 144 h exposure)	cytotoxic properties compared to effects on LNCaP and LNCaP-AR cells (PC-3)	cytotoxic properties compared to effects on LNCaP and LNCaP-AR cells (DU145)	Apoptotic cells (%) (LNCaP cells [2])	Apoptotic cells (%) (LNCaP-AR cells)	GI50 (LNCaP cells [1]; read-out: Growth inhibition (GI50), LNCaP cells, 144 h exposure) [µM]	cytocidal effects by 50% (LC50) (LNCaP cells [1]; LNCaP cells, 144 h exposure)	toxicity: inhibition of clonogenic growth of hematopoietic precursors [3]	potential hepato-toxicity (HepG2 cells)	GI50 (LNCaP cells [1]; Homo sapiens, LNCaP cells, 144 h exposure, read-out: Growth inhibition (GI50)) [µM]	cytostatic effect: suppression of cell growth (LNCaP cells [1]; LNCaP cells, 144 h, highest concentration tested)	inhibition of androgen-induced transcriptional activation (antagonistic activity) ([4]; cells challenged with 10 nM R1881, compound at 10 μM)	agonistic activity, compound alone ([4]; range between 100 nM-10 μM)
CC(C)(C)S(=O)(=O)N[C@](C)(CS(=O)(=O)c1ccc(F)cc1)C(=O)Nc1ccc(C#N)c(C(F)(F)F)c1 [(S)-22]	7	19.8	cytocidal activity	significant reduction in their cytotoxic proprieties	significant reduction in their cytotoxic proprieties	6.2	0.0								
Cc1ccc(S(=O)(=O)N[C@](C)(CS(=O)(=O)c2ccc(F)cc2)C(=O)Nc2ccc(C#N)c(C(F)(F)F)c2)cc1 [(S)-26]	6.3	18.3		significant reduction in their cytotoxic proprieties	significant reduction in their cytotoxic proprieties	77.5	91.6								
N#Cc1ccc(NC(=O)[C@@](N)(CS(=O)(=O)c2ccc(F)cc2)c2ccccc2)cc1C(F)(F)F [(R)-9]		15	cytocidal activity	significant reduction in their cytotoxic proprieties	significant reduction in their cytotoxic proprieties	93.5	83.5	1.6							
C[C@](N)(CS(=O)(=O)c1ccc(F)cc1)C(=O)Nc1ccc(C#N)c(C(F)(F)F)c1 [(R)-23, (R)-2-amino-N-(4-cyano-3-(trifluoromethyl)phenyl)-3-(4-fluorophenylsulfonyl)-2-methyl propanamide]	10.6								n.r.	negligible	negligible toxicity				
C[C@](O)(CS(=O)(=O)c1ccc(F)cc1)C(=O)Nc1ccc(C#N)c(C(F)(F)F)c1 [(R)-Bicalutamide, reference compound]						2.1	1.0		n.r.			1.8			
CC(C)(C)S(=O)(=O)N[C@@](C)(CS(=O)(=O)c1ccc(F)cc1)C(=O)Nc1ccc(C#N)c(C(F)(F)F)c1 [(R)-22, (R)—N-(4-cyano-3-(trifluoromethyl)phenyl)-2-(1,1-dimethylethylsulfonamido)-3-(4-fluorophenylsulfonyl)-2-methylpropanamide]	5.8	20								negligible	negligible toxicity		suppress completely the cell growth	antagonistic activity	functions as agonist
